# Values of other authors, collected in PMC9851200, “Multiparameter phenotypic screening for endogenous TFEB and TFE3 translocation identifies novel chemical series modulating lysosome function” (Autophagy, 2022).
# Legend:
# Parameters in all cases: method as in original PKIS2 published data
# [1] = molecular target: T1, kinases (KINOMEscan panel) (Homo sapiens, UniProt Q96D53); settings: kinase COQ8B; Published KINOMEscan; ref original PKIS2 published data; cited from earlier work
# T1 sequence (Q96D53 1-544): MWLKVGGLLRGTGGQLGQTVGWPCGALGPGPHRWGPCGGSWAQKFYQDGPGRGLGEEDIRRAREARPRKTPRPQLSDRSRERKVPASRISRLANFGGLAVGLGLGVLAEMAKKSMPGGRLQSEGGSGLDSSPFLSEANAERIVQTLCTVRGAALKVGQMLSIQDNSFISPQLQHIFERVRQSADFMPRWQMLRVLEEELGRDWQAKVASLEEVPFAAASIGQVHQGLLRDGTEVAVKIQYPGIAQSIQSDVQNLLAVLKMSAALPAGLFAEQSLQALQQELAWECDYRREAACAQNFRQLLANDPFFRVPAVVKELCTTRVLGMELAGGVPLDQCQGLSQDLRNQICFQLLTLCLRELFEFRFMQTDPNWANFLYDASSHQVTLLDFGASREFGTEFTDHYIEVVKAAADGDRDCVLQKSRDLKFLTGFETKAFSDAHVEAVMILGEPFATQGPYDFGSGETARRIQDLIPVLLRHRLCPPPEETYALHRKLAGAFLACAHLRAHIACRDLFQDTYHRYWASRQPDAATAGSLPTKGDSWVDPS
# [2] = molecular target: kinases (KINOMEscan panel) (Homo sapiens, UniProt P31751); settings: Published KINOMEscan; ref original PKIS2 published data; cited from earlier work
# Chain of kinases (KINOMEscan panel) (Homo sapiens, UniProt P31751) (P31751 whole entry): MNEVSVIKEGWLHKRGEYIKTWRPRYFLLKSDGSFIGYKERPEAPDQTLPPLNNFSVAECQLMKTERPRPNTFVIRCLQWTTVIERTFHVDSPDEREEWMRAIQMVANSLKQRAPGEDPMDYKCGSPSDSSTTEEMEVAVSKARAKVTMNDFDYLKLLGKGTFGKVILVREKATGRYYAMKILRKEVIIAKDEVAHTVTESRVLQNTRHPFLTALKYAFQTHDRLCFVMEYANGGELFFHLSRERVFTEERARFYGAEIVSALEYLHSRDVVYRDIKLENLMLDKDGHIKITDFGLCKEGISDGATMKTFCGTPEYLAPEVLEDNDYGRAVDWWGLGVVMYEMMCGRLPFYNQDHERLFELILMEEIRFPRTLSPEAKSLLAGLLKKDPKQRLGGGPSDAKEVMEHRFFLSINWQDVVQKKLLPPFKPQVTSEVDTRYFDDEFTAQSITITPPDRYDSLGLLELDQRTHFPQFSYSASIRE
# [3] = molecular target: T2, kinases (KINOMEscan panel) (Homo sapiens, UniProt Q8IYT8); settings: Published KINOMEscan; ref original PKIS2 published data; cited from earlier work
# T2 sequence (Q8IYT8 1-1036): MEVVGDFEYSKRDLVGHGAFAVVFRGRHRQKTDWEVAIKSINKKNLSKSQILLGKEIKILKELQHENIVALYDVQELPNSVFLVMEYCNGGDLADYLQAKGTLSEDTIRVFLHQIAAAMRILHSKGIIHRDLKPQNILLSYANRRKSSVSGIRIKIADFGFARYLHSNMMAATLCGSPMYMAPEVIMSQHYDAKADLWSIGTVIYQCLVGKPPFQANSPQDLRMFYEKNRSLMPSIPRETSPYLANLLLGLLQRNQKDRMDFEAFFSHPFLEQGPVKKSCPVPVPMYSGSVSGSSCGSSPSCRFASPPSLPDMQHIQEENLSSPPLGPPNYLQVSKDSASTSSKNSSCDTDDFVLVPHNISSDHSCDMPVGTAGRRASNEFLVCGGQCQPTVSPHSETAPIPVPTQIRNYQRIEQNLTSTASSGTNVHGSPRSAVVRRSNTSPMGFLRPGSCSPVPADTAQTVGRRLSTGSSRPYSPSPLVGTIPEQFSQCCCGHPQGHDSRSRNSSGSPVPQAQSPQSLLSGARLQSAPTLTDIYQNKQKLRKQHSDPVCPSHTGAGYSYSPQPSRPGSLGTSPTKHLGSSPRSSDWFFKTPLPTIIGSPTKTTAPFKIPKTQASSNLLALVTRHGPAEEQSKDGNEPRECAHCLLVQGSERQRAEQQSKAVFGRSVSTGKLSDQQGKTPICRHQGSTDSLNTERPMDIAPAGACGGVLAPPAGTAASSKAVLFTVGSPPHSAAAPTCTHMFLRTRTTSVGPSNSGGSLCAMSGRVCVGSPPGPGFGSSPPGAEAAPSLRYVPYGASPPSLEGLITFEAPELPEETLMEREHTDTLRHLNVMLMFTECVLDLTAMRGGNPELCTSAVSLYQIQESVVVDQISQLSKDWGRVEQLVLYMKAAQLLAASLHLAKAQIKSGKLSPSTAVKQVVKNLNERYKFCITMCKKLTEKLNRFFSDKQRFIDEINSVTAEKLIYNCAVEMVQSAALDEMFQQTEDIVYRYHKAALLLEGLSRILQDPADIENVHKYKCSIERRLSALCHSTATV
# [4] = molecular target: kinases (KINOMEscan panel) (Homo sapiens, UniProt P53667); settings: kinase LIMK1; Published KINOMEscan; ref original PKIS2 published data; cited from earlier work
# Chain of kinases (KINOMEscan panel) (Homo sapiens, UniProt P53667) (P53667 whole entry): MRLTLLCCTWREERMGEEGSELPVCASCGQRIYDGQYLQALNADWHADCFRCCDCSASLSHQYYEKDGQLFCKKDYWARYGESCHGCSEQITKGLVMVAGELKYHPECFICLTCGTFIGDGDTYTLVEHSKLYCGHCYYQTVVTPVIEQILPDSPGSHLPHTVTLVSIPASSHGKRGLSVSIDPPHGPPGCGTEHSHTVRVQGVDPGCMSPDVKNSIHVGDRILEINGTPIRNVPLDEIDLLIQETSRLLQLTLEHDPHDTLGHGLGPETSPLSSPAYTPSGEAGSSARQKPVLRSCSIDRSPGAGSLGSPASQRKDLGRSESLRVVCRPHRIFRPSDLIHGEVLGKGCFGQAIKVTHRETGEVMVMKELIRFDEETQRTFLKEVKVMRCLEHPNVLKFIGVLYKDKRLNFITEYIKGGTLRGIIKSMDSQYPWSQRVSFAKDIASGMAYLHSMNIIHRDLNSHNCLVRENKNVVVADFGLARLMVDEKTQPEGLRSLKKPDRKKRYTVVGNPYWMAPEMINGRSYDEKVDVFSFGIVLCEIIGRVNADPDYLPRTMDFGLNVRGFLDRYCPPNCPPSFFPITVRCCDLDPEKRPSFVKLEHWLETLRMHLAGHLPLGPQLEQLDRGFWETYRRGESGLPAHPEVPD
# [5] = molecular target: kinases (KINOMEscan panel) (Homo sapiens, UniProt Q13523); settings: PRPF4B; Published KINOMEscan; ref original PKIS2 published data; cited from earlier work
# Chain of kinases (KINOMEscan panel) (Homo sapiens, UniProt Q13523) (Q13523 whole entry): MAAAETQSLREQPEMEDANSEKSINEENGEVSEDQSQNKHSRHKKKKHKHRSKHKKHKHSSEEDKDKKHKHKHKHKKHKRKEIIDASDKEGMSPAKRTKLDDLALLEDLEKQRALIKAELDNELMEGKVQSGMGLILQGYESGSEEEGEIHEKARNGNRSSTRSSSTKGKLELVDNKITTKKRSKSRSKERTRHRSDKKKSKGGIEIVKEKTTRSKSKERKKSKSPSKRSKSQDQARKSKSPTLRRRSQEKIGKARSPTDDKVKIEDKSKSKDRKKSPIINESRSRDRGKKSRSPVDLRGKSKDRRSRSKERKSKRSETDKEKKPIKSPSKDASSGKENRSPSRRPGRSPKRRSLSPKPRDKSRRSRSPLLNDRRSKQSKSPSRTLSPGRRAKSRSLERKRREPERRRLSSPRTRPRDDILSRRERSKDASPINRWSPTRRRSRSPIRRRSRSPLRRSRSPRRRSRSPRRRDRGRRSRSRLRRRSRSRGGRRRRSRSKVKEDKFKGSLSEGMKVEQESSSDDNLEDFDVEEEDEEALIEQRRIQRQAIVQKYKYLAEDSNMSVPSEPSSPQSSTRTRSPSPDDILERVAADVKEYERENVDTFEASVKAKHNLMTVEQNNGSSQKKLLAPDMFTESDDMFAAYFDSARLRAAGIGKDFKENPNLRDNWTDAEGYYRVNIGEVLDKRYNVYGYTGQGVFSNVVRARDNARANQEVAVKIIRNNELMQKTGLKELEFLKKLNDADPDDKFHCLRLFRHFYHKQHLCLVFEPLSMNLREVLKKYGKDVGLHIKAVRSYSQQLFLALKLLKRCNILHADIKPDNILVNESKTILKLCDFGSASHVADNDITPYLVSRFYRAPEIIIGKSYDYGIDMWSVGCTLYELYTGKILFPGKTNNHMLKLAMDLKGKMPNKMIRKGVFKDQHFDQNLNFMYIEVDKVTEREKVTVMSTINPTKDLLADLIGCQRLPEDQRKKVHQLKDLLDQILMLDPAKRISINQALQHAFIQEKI
# [6] = molecular target: T3, kinases (KINOMEscan panel) (Homo sapiens, UniProt P25098); settings: Published KINOMEscan; ref original PKIS2 published data; cited from earlier work
# T3 sequence (P25098 1-689): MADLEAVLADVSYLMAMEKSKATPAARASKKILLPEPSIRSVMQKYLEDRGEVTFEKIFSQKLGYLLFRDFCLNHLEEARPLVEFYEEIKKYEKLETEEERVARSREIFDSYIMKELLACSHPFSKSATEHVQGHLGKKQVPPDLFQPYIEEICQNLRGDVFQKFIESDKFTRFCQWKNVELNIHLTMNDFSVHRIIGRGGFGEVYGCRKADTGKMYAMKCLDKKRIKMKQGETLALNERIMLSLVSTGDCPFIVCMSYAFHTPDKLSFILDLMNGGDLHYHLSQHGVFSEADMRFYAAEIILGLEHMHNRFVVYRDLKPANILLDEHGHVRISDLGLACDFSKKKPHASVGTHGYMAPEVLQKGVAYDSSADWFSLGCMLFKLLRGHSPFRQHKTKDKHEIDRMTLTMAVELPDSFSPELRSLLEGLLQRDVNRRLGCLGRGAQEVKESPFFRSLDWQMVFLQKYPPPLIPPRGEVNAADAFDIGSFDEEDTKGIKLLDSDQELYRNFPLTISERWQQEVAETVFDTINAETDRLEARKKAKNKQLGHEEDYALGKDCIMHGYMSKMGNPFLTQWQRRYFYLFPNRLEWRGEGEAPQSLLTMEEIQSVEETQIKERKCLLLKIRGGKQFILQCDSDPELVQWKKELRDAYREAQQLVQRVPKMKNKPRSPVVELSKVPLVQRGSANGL
# [7] = molecular target: kinases (KINOMEscan panel) (Homo sapiens, UniProt Q9UPE1); settings: SRPK3; Published KINOMEscan; ref original PKIS2 published data; cited from earlier work
# Chain of kinases (KINOMEscan panel) (Homo sapiens, UniProt Q9UPE1) (Q9UPE1 whole entry): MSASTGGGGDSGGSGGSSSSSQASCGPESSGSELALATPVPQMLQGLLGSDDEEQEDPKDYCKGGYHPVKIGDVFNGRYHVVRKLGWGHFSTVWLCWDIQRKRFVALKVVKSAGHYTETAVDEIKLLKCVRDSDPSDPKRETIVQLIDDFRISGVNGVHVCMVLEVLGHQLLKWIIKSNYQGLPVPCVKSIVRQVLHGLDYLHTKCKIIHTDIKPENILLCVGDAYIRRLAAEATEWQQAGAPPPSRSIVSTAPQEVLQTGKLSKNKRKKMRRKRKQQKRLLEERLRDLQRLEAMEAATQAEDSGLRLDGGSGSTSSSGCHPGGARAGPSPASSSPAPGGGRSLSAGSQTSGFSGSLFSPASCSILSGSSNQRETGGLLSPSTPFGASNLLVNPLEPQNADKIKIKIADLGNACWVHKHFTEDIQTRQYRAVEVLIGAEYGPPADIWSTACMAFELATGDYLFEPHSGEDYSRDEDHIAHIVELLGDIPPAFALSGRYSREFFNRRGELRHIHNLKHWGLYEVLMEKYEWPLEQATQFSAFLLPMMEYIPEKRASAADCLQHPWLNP
smiles,measurement,setting,value
Cc1cccc(-c2nc(Nc3ccncc3)c3ccccc3n2)n1 [NK215],KINOMEscan COQ8B,[1],0
same,KINOMEscan AKT2,[2],0
same,KINOMEscan ULK2,[3],0
same,KINOMEscan LIMK1,[4],12
same,KINOMEscan PRPF4B,[5],17
same,KINOMEscan GRK2,[6],0
same,KINOMEscan SRPK3,[7],15
